Assays:
[1] = cited from earlier work
[2] = biological test, activity compared with unmodified insulin

Substance | biological activity compared with unmodified insulin [2] | further results
Porcine insulin-Arg^B31 OH |  | activity relative to unmodified porcine insulin ([1]; according to Chance, Excerpta Medica Int. Congress Series No. 231): 62%
insulin-Arg^B31 -Arg^B32 -OH | approximately the same level as that of unmodified insulin | 
insulin-Arg^B31 -OH | approximately the same level as that of unmodified insulin | 
proinsulin: proinsulin, insulin precursor containing the C-peptide |  | biological activity as fraction of that of insulin ([1]; intact proinsulin vs insulin): about 1/8

Source: patent publication US4701440A (Hoechst Aktiengesellschaft, priority 1983, dated 1987)
